# Calls of active or inactive are those of the source. Cut-off read from the data, not from the text of the source, for most assays here: actives have a measured EC50 and inactives only a lower limit.
# Columns and labels:
# [1] = target: T1, Heat shock factor protein 1 (Mus musculus, UniProt P38532); test: enhancement of HSF1-driven luciferase signal – cell-based, NIH3T3, luminescence, dose retest, confirmation (AID 435004); format: functional;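 note: stress induced by proteasome inhibitor MG132 added 30 min after compound; luciferase reporter driven by HSF1 response element in NIH3T3 cells; actives raise luminescence as potentiators of the MG132 stress response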
# T1 sequence (P38532 whole entry): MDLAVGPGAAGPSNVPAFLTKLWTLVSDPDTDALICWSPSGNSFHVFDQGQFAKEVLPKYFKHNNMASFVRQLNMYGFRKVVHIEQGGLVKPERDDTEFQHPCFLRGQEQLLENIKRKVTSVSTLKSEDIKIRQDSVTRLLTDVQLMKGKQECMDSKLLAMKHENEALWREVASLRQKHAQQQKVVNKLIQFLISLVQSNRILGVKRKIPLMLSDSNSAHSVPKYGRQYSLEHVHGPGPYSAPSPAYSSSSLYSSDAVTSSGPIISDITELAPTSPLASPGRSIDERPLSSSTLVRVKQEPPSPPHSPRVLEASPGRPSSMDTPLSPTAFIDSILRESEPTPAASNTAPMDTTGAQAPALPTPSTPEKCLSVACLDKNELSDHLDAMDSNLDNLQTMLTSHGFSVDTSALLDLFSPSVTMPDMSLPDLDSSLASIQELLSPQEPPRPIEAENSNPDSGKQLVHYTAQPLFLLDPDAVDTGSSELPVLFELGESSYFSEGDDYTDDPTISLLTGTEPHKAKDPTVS
# [2] = luciferase reporter signal suppression in cells – H4 neuroglioma cells, luminescence, dose response (AID 1990); format: functional, cell-based
# [3] = alpha-synuclein stem-loop luciferase translation blockers – H4 neuroglioma cells, luminescence, confirmation (AID 1988); format: functional, cell-based
# [4] = Luminescence Cell-Based Dose Response HTS to Identify Inhibitors of 5'UTR Stem-Loop Driven Prion Protein mRNA Translation in H4 Neuroglioblastoma Cells. [Related pubchem assays: 1827 (Project Summary), 1813 (Primary HTS)]; format: functional
# [5] = target: T2, Corticotropin-releasing factor receptor 2/Corticotropin-releasing factor-binding protein (Homo sapiens, UniProt P24387+Q13324); test: activators of CRF receptor 2 with binding protein – uHTS hits, confirmation (AID 602473); format: functional; details: read-out: EC50_Mean
# T2 sequence (Q13324 whole entry): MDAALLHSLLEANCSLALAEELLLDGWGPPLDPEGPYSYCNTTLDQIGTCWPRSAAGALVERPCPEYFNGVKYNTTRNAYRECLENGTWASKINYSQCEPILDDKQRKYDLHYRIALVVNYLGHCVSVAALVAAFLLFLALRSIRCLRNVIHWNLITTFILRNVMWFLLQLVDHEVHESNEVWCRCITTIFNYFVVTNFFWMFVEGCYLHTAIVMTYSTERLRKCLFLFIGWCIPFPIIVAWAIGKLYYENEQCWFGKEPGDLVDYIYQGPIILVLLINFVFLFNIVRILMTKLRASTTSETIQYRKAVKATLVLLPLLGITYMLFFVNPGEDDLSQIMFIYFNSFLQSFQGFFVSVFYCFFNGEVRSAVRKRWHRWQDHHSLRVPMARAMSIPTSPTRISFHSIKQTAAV
# T2 sequence (P24387 whole entry): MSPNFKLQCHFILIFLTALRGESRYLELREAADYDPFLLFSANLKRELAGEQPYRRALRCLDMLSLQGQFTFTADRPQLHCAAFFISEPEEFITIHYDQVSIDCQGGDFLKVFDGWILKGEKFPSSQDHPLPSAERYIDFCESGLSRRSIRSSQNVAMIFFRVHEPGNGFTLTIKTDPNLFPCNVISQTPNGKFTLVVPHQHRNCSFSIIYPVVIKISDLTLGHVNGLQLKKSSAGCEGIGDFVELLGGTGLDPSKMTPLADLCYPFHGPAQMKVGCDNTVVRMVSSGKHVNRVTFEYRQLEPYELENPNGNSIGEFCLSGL
# [6] = Luminescence Cell-Based Dose Confirmation HTS to Identify Inhibitors of Platelet Dense Granule Release. [Related pubchem assays: 1663 (Primary HTS), 1678 (Summary of Project)]; format: functional
# [7] = target: Luciferin 4-monooxygenase (Photinus pyralis, UniProt P08659); test: inhibition of purified Photinus pyralis luciferase – biochemical, luminescence, dose response (AID 1891)
# Sequence of Luciferin 4-monooxygenase (P08659 whole entry): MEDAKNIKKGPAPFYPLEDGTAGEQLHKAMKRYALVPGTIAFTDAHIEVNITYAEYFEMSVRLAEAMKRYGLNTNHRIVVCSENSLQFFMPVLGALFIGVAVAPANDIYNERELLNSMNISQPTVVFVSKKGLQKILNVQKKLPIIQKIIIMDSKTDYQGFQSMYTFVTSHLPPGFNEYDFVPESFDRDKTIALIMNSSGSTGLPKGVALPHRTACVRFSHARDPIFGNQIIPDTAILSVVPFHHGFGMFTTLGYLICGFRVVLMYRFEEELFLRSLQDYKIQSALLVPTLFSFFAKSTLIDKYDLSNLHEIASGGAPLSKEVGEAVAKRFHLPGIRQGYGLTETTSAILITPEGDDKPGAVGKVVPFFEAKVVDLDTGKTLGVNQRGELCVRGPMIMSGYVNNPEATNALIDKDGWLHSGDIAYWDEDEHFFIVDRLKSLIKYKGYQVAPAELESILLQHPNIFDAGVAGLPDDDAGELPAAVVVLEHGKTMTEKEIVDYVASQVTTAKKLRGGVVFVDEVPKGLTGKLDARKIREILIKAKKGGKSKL
# [8] = target: T2, Corticotropin-releasing factor receptor 2/Corticotropin-releasing factor-binding protein; test: Dose Response confirmation of uHTS hits for small molecule antagonists of the CRF-binding protein and CRF-R2 receptor complex.; format: functional; details: read-out: IC50_Mean
# [9] = Luminescence Cell-Based Dose Retest to Confirm Inhibitors of Cancer Stem Cells. [Related pubchem assays (depositor defined):AID2717, AID2721]; format: functional; details: Homo sapiens
# [10] = off-target signal loss in HeLa-CEM21 co-culture – HeLa F-luc CTL cells, cherry-picked, counter-screen for HIV-1 Env fusion inhibitor project, dose response (AID 652040); format: functional, cell-based;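 note: potency for signal decrease marking cytotoxic or nonspecific inhibition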
# [11] = target: T1, Heat shock factor protein 1; test: decrease of HSF1-responsive luciferase luminescence – cell-based, NIH3T3, dose retest, confirmation (AID 2382); format: functional;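 note: NIH3T3 fibroblasts with HSF1-driven luciferase reporter stressed by proteasome inhibitor MG132; luminescence from HSF1-driven luciferase expression after 8 hours of MG132 stress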
# Cytochrome P450 2C9 = Cytochrome P450 2C9 (Homo sapiens, UniProt P11712)
# Sequence of Cytochrome P450 2C9 (P11712 whole entry): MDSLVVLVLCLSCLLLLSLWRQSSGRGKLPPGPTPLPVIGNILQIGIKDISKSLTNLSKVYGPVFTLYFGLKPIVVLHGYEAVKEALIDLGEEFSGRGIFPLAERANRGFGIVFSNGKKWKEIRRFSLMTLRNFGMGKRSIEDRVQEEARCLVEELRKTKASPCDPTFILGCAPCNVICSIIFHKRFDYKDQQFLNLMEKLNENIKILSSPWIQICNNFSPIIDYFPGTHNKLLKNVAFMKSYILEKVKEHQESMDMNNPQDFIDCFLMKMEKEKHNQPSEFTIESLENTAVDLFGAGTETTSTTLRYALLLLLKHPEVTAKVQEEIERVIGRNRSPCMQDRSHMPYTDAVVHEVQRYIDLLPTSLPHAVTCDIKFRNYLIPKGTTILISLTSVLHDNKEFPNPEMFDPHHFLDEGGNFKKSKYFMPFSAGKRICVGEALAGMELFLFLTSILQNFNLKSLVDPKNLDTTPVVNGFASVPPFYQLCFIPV
# [12] = tested on: Streptococcus sp. 'group A'; test: Streptococcus pyogenes SK(-)GAS viability under kanamycin – luminescence, BacTiterGlo, confirmation, counter-screen for streptokinase expression inhibitor project, dose response (AID 1900); format: functional, organism-based
# Streptococcus = test: GAS UMAA2166 growth inhibition – luminescence, BacTiterGlo, counter-screen for streptokinase expression inhibitor project, dose response (AID 1915); format: functional, organism-based;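 note: potency for reduction of bacterial viability or growth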
# [13] = viability of uninfected HEp-2 cells – cell-based, HTS, cytotoxicity control for RSV inhibitor project, dose response (AID 2410); format: functional; details: human respiratory syncytial virus
# [14] = HIV-1 AD8 envelope cell-cell fusion blockers – cherry-pick, dose response (AID 652062); format: functional, cell-based;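 note: luciferase signal from cell-cell fusion driven by HIV-1 clade B AD8 Env; potency is for inhibitors of fusion seen as a drop in luminescence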
# [15] = target: T3, Rac GTPase-activating protein 1 (Homo sapiens, UniProt Q9H0H5); test: blockers of MgcRacGAP-driven Rac1 GTP hydrolysis – biochemical, ADP Hunter fluorescence, primary and confirmatory, confirmation (AID 624330); format: functional
# T3 sequence (Q9H0H5 whole entry): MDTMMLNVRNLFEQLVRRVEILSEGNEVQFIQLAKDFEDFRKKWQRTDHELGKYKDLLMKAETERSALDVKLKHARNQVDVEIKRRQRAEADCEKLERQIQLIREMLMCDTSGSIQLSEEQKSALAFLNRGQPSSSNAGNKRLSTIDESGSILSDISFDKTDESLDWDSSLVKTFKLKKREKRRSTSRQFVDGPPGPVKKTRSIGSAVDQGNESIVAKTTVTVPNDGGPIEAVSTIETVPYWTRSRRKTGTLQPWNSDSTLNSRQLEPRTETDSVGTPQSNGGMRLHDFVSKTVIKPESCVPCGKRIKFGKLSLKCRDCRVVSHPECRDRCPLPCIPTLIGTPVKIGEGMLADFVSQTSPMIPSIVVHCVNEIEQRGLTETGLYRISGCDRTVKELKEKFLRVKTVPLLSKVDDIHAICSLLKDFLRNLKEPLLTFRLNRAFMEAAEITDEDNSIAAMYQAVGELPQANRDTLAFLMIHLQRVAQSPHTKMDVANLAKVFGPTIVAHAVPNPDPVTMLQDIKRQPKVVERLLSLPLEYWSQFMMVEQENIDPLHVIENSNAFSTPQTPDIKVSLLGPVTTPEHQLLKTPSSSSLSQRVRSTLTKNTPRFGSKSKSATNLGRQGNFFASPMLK
smiles,measurement,setting,value
Cc1cccc(-c2cc(C(=O)Nc3ccncc3)c3ccccc3n2)c1,EC50,[1],43.1 µM (active)
COc1cccc(CNC(=O)c2nnn(CC(=O)Nc3ccc(Br)cc3)c2N)c1,EC50,[2],46.9 µM (active)
same,EC50,[3],11 µM (active)
same,EC50,[4],103 µM (active)
CCOc1ccc(C2C(C#N)=C(N)N3C(=C2C#N)Sc2ccccc23)cc1 (stereo not drawn),EC50,[5],8.06 µM (active)
Cn1c(NNC(=O)c2ccccc2F)cc(=O)n(C)c1=O,EC50,[2],> 120 µM (not active)
same,EC50,[3],> 120 µM (not active)
same,EC50,[4],> 120 µM (not active)
COC(=O)c1sccc1NC(=O)Nc1ccc(OC)cc1,EC50,[6],1.33 µM (active)
same,EC50,[7],0.358 µM (active)
O=C1CC2CS(=O)(=O)CC2N1c1ccc(Oc2ccccc2)cc1 (stereo not drawn),EC50,[5],> 53 µM (inactive)
same,IC50,[8],> 47.1 µM (inactive)
Oc1ccc(-c2cnc(-c3ccc(O)cc3)nc2)cc1,EC50,[1],4.99 µM (active)
same,AC50,[9],0.342 µM (active)
CCN(CC)S(=O)(=O)c1cccc(NC(=O)COC(=O)CCC(=O)c2ccc(F)cc2)c1,EC50,[6],> 112 µM (not active)
same,EC50,[7],> 112 µM (not active)
Cc1cc(Cl)ccc1OCC(=O)NNC(=O)C1CSC2(C)CCC(=O)N12 (stereo not drawn),AC50,[10],39.8 µM (active)
Cc1ccnc(NS(=O)(=O)c2ccc(NC(=O)COc3ccccc3)cc2)n1,EC50,[11],> 195 µM (not active)
same,EC50,[2],> 120 µM (not active)
same,EC50,[3],> 120 µM (not active)
same,EC50,[4],> 120 µM (not active)
COc1ccc(NC(=O)CSc2nnc(Cn3cnc([N+](=O)[O-])n3)n2C)cc1,EC50,[1],> 260 µM (inactive)
CC(C)NC(=O)NC(=O)COc1ccc(Br)cc1Br,EC50,[1],> 260 µM (inactive)
COC(=O)c1ccc(Oc2nc(C)cc(Oc3ccccc3)n2)cc1,EC50,[6],> 112 µM (not active)
same,EC50,[7],> 112 µM (not active)
COc1cc2nc(S)nc(NCc3ccc(Cl)cc3)c2cc1OC,EC50,[1],> 260 µM (inactive)
COc1cc(C2C(C#N)=C(N)N(Nc3ccccc3)C3=C2C(=O)CC(C)(C)C3)ccc1OCc1ccccc1 (stereo not drawn),AC50,Cytochrome P450 2C9,0.794 µM (inconclusive)
same,EC50,[2],13.4 µM (active)
same,EC50,[3],> 120 µM (not active)
same,EC50,[4],18.7 µM (active)
Cc1onc(C(=O)Nc2ccc3c(c2)OCO3)c1[N+](=O)[O-],EC50,[6],> 112 µM (not active)
same,EC50,[7],> 112 µM (not active)
O=C(NCc1nnc(SCc2ccccc2)n1-c1ccccc1)C12CC3CC(CC(C3)C1)C2,EC50,[1],> 260 µM (inactive)
COc1cccc(CNc2ccc(Br)cn2)c1O,EC50,[1],34.1 µM (active)
O=S(=O)(Nc1cccc(-c2ccc3nncn3n2)c1)c1cc(F)ccc1F,EC50,[6],> 112 µM (not active)
same,EC50,[7],> 112 µM (not active)
CC1(c2ccc(OC(F)F)cc2)NC(=O)N(CC(=O)Nc2cccnc2Cl)C1=O (stereo not drawn),EC50,[5],15 µM (active)
CC(C)CC(=O)Nc1ccc(C(=O)NNC(=S)NC(=O)C2CCCCC2)cc1,EC50,[12],1.65 µM (active)
same,EC50,Streptococcus,5.23 µM (active)
same,EC50,[2],12.5 µM (active)
same,EC50,[3],12.4 µM (active)
same,EC50,[4],14.8 µM (active)
O=C1c2ccccc2C(=O)c2c1cccc2-n1nnc2ccccc21,EC50,[2],16.3 µM (active)
same,EC50,[3],> 120 µM (not active)
same,EC50,[4],> 120 µM (not active)
Cc1c(C#N)c(N)nc2c3c(sc12)NC(=O)CC3c1ccc(F)cc1 (stereo not drawn),EC50,[6],> 112 µM (not active)
same,EC50,[7],> 112 µM (not active)
O=C1NC(c2ccccc2)=C(c2nc3ccccc3s2)C(c2ccc(F)cc2)N1 (stereo not drawn),EC50,[2],> 60 µM (not active)
same,CC50,[13],10.4 µM (active)
same,EC50,[3],20.8 µM (active)
same,EC50,[4],> 120 µM (not active)
CC(Nc1ccc([N+](=O)[O-])cc1[N+](=O)[O-])c1ccccc1 (stereo not drawn),EC50,[5],> 53 µM (inactive)
same,IC50,[8],34.7 µM (active)
Cc1ccc(CC(=O)NCCCc2ccccc2)cc1,EC50,[5],> 53 µM (inactive)
same,IC50,[8],> 47.1 µM (inactive)
Cc1cc(C(=O)NNC(=O)C(CCC(N)=O)NS(=O)(=O)c2ccc(Cl)cc2)c(C)o1 (stereo not drawn),EC50,[5],> 53 µM (inactive)
same,IC50,[8],> 47.1 µM (inactive)
Cc1ccc(NC(=O)N2CCCC2C(=O)Nc2c(C)cc(C)cc2C)cc1 (stereo not drawn),EC50,[1],> 260 µM (inactive)
CC1=C(C(=O)N(C(C)C)C(C)C)CC(CC(=O)NC2CCCCC2)C(=O)N1Cc1ccccc1 (stereo not drawn),EC50,[5],> 53 µM (inactive)
same,IC50,[8],> 47.1 µM (inactive)
O=C(NCc1ccccc1)c1ccc(Cl)cc1,EC50,[5],> 53 µM (inactive)
same,IC50,[8],> 47.1 µM (inactive)
Nn1cnnc1N/N=C/c1cc([N+](=O)[O-])c(Cl)cc1Cl,EC50,[1],> 260 µM (inactive)
CCc1ccccc1/N=C/c1c(C)c(C#N)c2nc3ccccc3n2c1O,EC50,[5],4.75 µM (active)
COc1cccc(S(=O)(=O)N2CC3(CN(C(=O)Nc4cccc(F)c4)[C@H](CO)c4[nH]c5cc(OC)ccc5c43)C2)c1,AC50,[14],22 µM (active)
O=Nc1c(-c2ccccc2)[nH]n(-c2ccccc2)c1=O,EC50,[1],3.87 µM (active)
CCCCOC(=O)N/N=C/C=C/c1ccccc1,EC50,[6],> 112 µM (not active)
same,EC50,[7],> 112 µM (not active)
Cc1ccsc1/C=N/N1CCN(C2c3ccccc3-c3ccccc32)CC1,EC50,[6],> 112 µM (not active)
same,EC50,[7],> 112 µM (not active)
Oc1c(Br)cc(-c2ccccc2)cc1Br,EC50,[5],> 53 µM (inactive)
same,IC50,[15],85 µM (active)
same,IC50,[8],10.1 µM (active)

# Reference: ChEMBL document CHEMBL1201862, “PubChem BioAssay data set” (2004)
